From patent US10561619B2, “Pharmaceutical composition comprising dutasteride and propylene glycol monolaurate and preparation method of the same” (Yuyu Pharma, Inc., priority 2015, dated 2020)
≈ marks a conversion by molar mass, not a printed value.

Experiments:
[1] = Evaluation of oil solubility of dutasteride; type: physicochemical; settings: for solubility at 24 h: oil or lipid, thermodynamic from solid
Method: In order to measure the solubility of dutasteride in oil, the solubility of dutasteride in glycerol tricaprylate, glycerol tricaprylate/caprate, glycerol tricaprylate/caprate/linoleate, propylene glycol dicaprylocaprate, propylene glycol dicaprate, propylene glycol dicaprylate and propylene glycol monolaurate was measured. In a 10 mL vial, a magnetic bar was placed. After 3 mL of the oil was added thereto, approximately 100 mg of dutasteride was added thereto while stirring under a room temperature (25° C.) condition, and the resultant mixture was stirred at 500 rpm or higher. After stirring for 24 hours, 1 mL of the resultant mixture was taken and separated using a centrifuge, and only a supernatant was taken to quantify an amount of dutasteride dissolved in the oil using liquid chromatography.

[2] = Stability of dutasteride depending on oil type (degradation products); type: physicochemical
Method: In Test Example 2, in order to identify the stability of dutasteride in oil, the oil and dutasteride are mixed at a ratio of about 10 to 1, and then a stability test is carried out under an accelerated and stress condition, and a percentage of generated unknown degradation products with respect to the active ingredient is calculated to confirm whether degradation products are generated or not.
In order to identify the stability of dutasteride in mono- and di-glyceride of caprylic/capric acid used as an oil phase of AVODART®, an existing commercially-available formulation, the stability of dutasteride was compared under the stress condition (50° C., 95% RH) and the accelerated condition (40° C., 75% RH). In the comparison test, a sample prepared by dissolving 1.0 mg of dutasteride in 10.0 mg of propylene glycol monocaprylate and stored in a transparent vial and a sample prepared by dissolving 1.0 mg of dutasteride in 10.0 mg of mono- and di-glyceride of caprylic/capric acid and stored in a transparent vial were used.

solubility at 24 h ([1]; glycerol tricaprylate (oil), in glycerol tricaprylate, 25° C., stirring 24 hours): 840 µg/mL (≈ 1590 µM)
solubility at 24 h ([1]; glycerol tricaprylate/caprate/linoleate (oil), in glycerol tricaprylate/caprate/linoleate, 25° C., stirring 24 hours): 220 µg/mL (≈ 416 µM)
Solubility ([1]; in glycerol tricaprylate/caprate, 25° C., stirring 24 hours): 0.81 mg/mL (≈ 1530 µM)
solubility at 24 h ([1]; propylene glycol dicaprylocaprate (oil), in propylene glycol dicaprylroccaprate, 25° C., stirring 24 hours): 970 µg/mL (≈ 1840 µM)
higher solubility in propylene glycol monolaurate compared to other tested oils ([1]; propylene glycol monolaurate vs other tested oils): ≥ 10 times
percentage of degradation products with respect to dutasteride ([2]; in mono- and di-glyceride of caprylic/capric acid, stress condition (50° C., 95% RH), Week 1): None
percentage of degradation products with respect to dutasteride ([2]; in mono- and di-glyceride of caprylic/capric acid, stress condition (50° C., 95% RH), Week 2): None
percentage of degradation products with respect to dutasteride ([2]; in mono- and di-glyceride of caprylic/capric acid, stress condition (50° C., 95% RH), Week 3): None
percentage of degradation products with respect to dutasteride ([2]; in propylene glycol monolaurate, accelerated condition (40° C., 75% RH), Week 4): not generated and None
percentage of degradation products with respect to dutasteride ([2]; in propylene glycol monolaurate, stress condition (50° C., 95% RH), Week 1): None
percentage of degradation products with respect to dutasteride ([2]; in propylene glycol monolaurate, stress condition (50° C., 95% RH), Week 2): None
percentage of degradation products with respect to dutasteride ([2]; in propylene glycol monolaurate, stress condition (50° C., 95% RH), Week 3): None
Compound: C[C@]12C=CC(=O)N[C@@H]1CC[C@@H]1[C@@H]2CC[C@]2(C)[C@@H](C(=O)Nc3cc(C(F)(F)F)ccc3C(F)(F)F)CC[C@@H]12 [dutasteride, 17β-N-(2,5-bis(trifluoromethyl))phenylcarbamoyl-4-aza-5α-androst-1-en-3-one]
